Measurements taken from US11466044B2 (WAYNE STATE UNIVERSITY, priority 2017, dated 2022).
Values after ≈ are worked out from the molar mass of the structure shown. Where two headings read alike, the source gives them in different places.

Columns and labels:
[1] = tested on: A1555G mutant mitochondrial ribosome (human chimeric); assay: in-vitro translation assay, human chimeric ribosomes, A1555G mutant mitochondrial decoding site; format: biochemical; settings: human mitochondrial decoding site with A1555G point mutation; read-out: IC50 Mitoch. A1555G
From the text: (§1) The antiribosomal activity of these compounds was investigated with cell-free translation assays using both wild type bacterial ribosomes and hybrid ribosomes carrying eukaryotic decoding A sites enabling the prediction of selectivity.

[2] = tested on: E coli carrying specific resistance determinants; assay: MIC by broth microdilution, E coli carrying specific resistance determinants; format: cell-based; settings: for MIC: Escherichia coli, read-out: MIC AG003 E. coli AAC(3)-II; for MIC AG003 E. coli AAC(3)-II: clinical isolate AG003, AAC(3)-II; for MIC AG036 ANT(4′,4′′): E. coli strain AG036, ANT(4′,4′′); for MIC AG037 APH(3′)-III: E. coli strain AG037, APH(3′)-III; for MIC AG103 armA: E. coli strain AG103, armA; for MIC pH421 APH(3)-I: E. coli strain pH421, APH(3)-I; for MIC pH422 APH(3′)-II: E. coli strain pH422, APH(3′)-II; for MIC pH423 APH(3′)-VI: E. coli strain pH423, APH(3′)-VI; for MIC pH432 ANT(4′): E. coli strain pH432, ANT(4′)
[3] = tested on: mitochondrial ribosome (human chimeric); format: biochemical; settings: for IC50: ribosomes with a human mitochondrial decoding site, read-out: IC50 Mitoch.; for Target specificity bacterial vs. Mitochondrial: relative target specificity, bacterial vs. human mitochondrial
From the text: as §1

[4] = tested on: cytosolic ribosome (human chimeric); format: biochemical; settings: for IC50: ribosomes with a human cytosolic decoding site, read-out: IC50 Cytosolic; for Target specificity bacterial vs. Cytosolic: relative target specificity, bacterial vs. human cytosolic
From the text: as §1

[5] = tested on: wild type bacterial ribosomes; assay: in-vitro translation assay, bacterial ribosomes; format: biochemical; settings: Mycobacterium smegmatis ribosomes; read-out: IC50 Bacterial
From the text: as §1

[6] = tested on: rabbit reticulocyte ribosomes; assay: in-vitro translation assay, rabbit reticulocyte ribosomes; format: biochemical; settings: mammalian cytosolic ribosomes (rabbit)
MRSA = assay: MIC by broth microdilution, MRSA isolates; format: cell-based; settings: for MIC: Staphylococcus aureus, MRSA
P aeruginosa = assay: MIC by broth microdilution, P aeruginosa isolates; format: cell-based, Pseudomonas aeruginosa; settings: for MIC: Pseudomonas aeruginosa
E coli wild type = assay: MIC by broth microdilution, wild type E coli; format: cell-based; settings: for MIC: Escherichia coli; for MIC pH430 WT: E. coli strain pH430, WT
[7] = clinical isolate AG038, read-out: MIC AG038 MRSA
[8] = clinical isolate AG039, AAC(6′)-I ANT(4′)-I, read-out: MIC AG039 MRSA AAC(6′)-I ANT(4′)-I
[9] = clinical isolate AG042, AAC(6′)-I ANT(4′)-I APH(2′), read-out: MIC AG042 MRSA AAC(6′)-I ANT(4′)-I APH(2′)
[10] = clinical isolate AG031, APH(3′)-II, read-out: MIC AG031 P. aer. APH(3′)-II
[11] = clinical isolate AG032, APH(3′)-II, read-out: MIC AG032 P. aer. APH(3′)-II
[12] = clinical isolate AG001, WT, read-out: MIC AG001 E. coli WT
[13] = clinical isolate AG055, WT, read-out: MIC AG055 E. coli WT
[14] = clinical isolate AG039, AAC(6′)-I ANT(4′)-I
[15] = clinical isolate AG042, AAC(6′)-I ANT(4′)-I APH(2′)
[16] = clinical isolate AG031, APH(3′)-II
[17] = clinical isolate AG032, APH(3′)-II

Row | SMILES | IC50 [1] [µM] | IC50 [3] [µM] | IC50 [4] [µM] | IC50 [5] [µM] | IC50 [6] [µM] | MIC AG003 E. coli AAC(3)-II [2] [µg/mL] | MIC AG038 MRSA (MRSA; clinical isolate AG038) [µg/mL] | MIC AG039 MRSA AAC(6′)-I ANT(4′)-I (MRSA; [14]) [µg/mL] | MIC AG042 MRSA AAC(6′)-I ANT(4′)-I APH(2′) (MRSA; [15]) [µg/mL] | MIC AG044 MRSA (MRSA; clinical isolate AG044) [µg/mL] | MIC AG031 P. aer. APH(3′)-II (P aeruginosa; [16]) [µg/mL] | MIC AG032 P. aer. APH(3′)-II (P aeruginosa; [17]) [µg/mL] | MIC AG001 E. coli WT (E coli wild type; clinical isolate AG001, WT) [µg/mL] | MIC AG055 E. coli WT (E coli wild type; clinical isolate AG055, WT) [µg/mL] | MIC pH430 WT (E coli wild type) | MIC AG036 ANT(4′,4′′) [2] [µg/mL] | MIC AG037 APH(3′)-III [2] [µg/mL] | MIC pH421 APH(3)-I [2] [μg/ml] | MIC pH422 APH(3′)-II [2] [μg/ml] | MIC pH423 APH(3′)-VI [2] | further results
1 | CNC1C(OC2C(N)CC(N)C(O)C2OC2OC(CO)C(O)C2O)OC(CN)C(O)C1O (stereo not drawn) [DC-100] | 224 | 457 | 372 | 0.52 | 90 |  |  |  |  |  |  |  |  |  |  |  |  |  |  |  | MIC [2]: 64 µg/mL (≈ 137 µM); MIC (MRSA; [7]): 64 to 128 µg/mL (≈ 137 to 273 µM); MIC (MRSA; [8]): > 128 µg/mL; MIC (MRSA; [9]): > 128 µg/mL; MIC (MRSA; clinical isolate AG044, read-out: MIC AG044 MRSA): 128 µg/mL (≈ 273 µM); MIC (P aeruginosa; [10]): > 128 µg/mL; MIC (P aeruginosa; [11]): > 128 µg/mL; MIC (E coli wild type; [12]): 64 to 128 µg/mL (≈ 137 to 273 µM); MIC (E coli wild type; [13]): 64 to 128 µg/mL (≈ 137 to 273 µM)
2 | NCC1OC(OC2C(CNC=O)OC(OC3C(O)C(N)CC(N)C3OC3OC(CO)C(O)C(O)C3N)C2O)C(N)C(O)C1O (stereo not drawn) [DC137] | 30 | 144 | 90 | 0.04 | 29 | 2 to 4 | 4 (≈ 6.22 µM) | >128 | >128 | 2 to 4 | ≥128 | 128 (≈ 199 µM) | 4 (≈ 6.22 µM) | 2 to 4 |  |  |  |  |  |  | 
3 | CC1CC(N)C2OC(OC3C(N)CC(N)C(O)C3OC3OC(CO)C(OC4OC(CN)C(O)C(O)C4N)C3O)C(N)C(O)C2O1 (stereo not drawn) [DC150] | 2.3 | 4.1 | 12 | 0.48 | 13 | >128 | 128 (≈ 196 µM) | 128 (≈ 196 µM) | 128 (≈ 196 µM) | 128 (≈ 196 µM) | >128 | >128 | >128 | >128 | 64-128 μg/ml |  |  |  |  |  | Target specificity bacterial vs. Mitochondrial [3]: low; Target specificity bacterial vs. Cytosolic [4]: low
4 | CC(N)C1OC(OC2C(N)CC(N)C(O)C2OC2OC(CO)C(OC3OC(CN)C(O)C(O)C3N)C2O)C(N)C(O)C1O (stereo not drawn) [DC166] | 1 | 9 | 26 | 0.01 | 48 | 2 (≈ 3.18 µM) | 2 (≈ 3.18 µM) | >128 | >128 | 1 (≈ 1.59 µM) | 128 to 256 | 128 (≈ 204 µM) | 2 (≈ 3.18 µM) | 2 (≈ 3.18 µM) | 0.5 μg/ml | 16 (≈ 25.5 µM) | >64 | >32 | >32 | >32 μg/ml | MIC AG103 armA [2]: 1 µg/mL (≈ 1.59 µM); MIC pH414 AAC(6′)-I ([2]; E. coli strain pH414, AAC(6′)-I): 0.5 μg/ml; MIC pH415 AAC(6′)-II ([2]; E. coli strain pH415, AAC(6′)-II): 1-2 μg/ml; MIC pH432 ANT(4′) [2]: 0.5 μg/ml
5 | CC(=O)N[C@H]1[C@@H](O[C@H]2[C@H](O[C@@H]3O[C@H](CO)[C@@H](O[C@H]4O[C@@H](CN)[C@@H](O)[C@H](O)[C@H]4N)[C@H]3O)[C@@H](O)[C@H](N)C[C@@H]2N)O[C@H](CN)[C@@H](O)[C@@H]1O [DC-183] | 28 | 93 | 147 | 5.3 | 103 | >32 | >32 | >32 | >32 |  | >32 | >32 | >32 | >32 |  |  |  |  |  |  | Target specificity bacterial vs. Mitochondrial [3]: low; Target specificity bacterial vs. Cytosolic [4]: low
6 | CC(C)(O)[C@H]1O[C@H](O[C@H]2[C@H](O[C@@H]3O[C@H](CO)[C@@H](O[C@H]4O[C@@H](CN)[C@@H](O)[C@H](O)[C@H]4N)[C@H]3O)[C@@H](O)[C@H](N)C[C@@H]2N)[C@H](N)[C@@H](O)[C@@H]1O [DC159] | 87 | 211 | 30 | 0.04 | 15 | 8 (≈ 12.4 µM) | 8 to 16 | >128 | >128 | 4 to 8 | >128 | >128 | 8 (≈ 12.4 µM) | 8 (≈ 12.4 µM) | 1-2 μg/ml | 16 to 32 | >64 | >64 | >64 | 8 μg/ml | MIC AG103 armA [2]: 4 to 8 µg/mL; MIC pH432 ANT(4′) [2]: 2 μg/ml
7 | CCCC(O)C1OC(OC2C(N)CC(N)C(O)C2OC2OC(CO)C(OC3OC(CN)C(O)C(O)C3N)C2O)C(N)C(O)C1O (stereo not drawn) [DC143] | 93 | 328 | 259 | 0.16 | 66 | 32 (≈ 48.7 µM) | 32 to 64 | >64 | >64 | 16 (≈ 24.3 µM) | >64 | >64 | 32 (≈ 48.7 µM) | 32 (≈ 48.7 µM) | 4 μg/ml | 64 (≈ 97.3 µM) | >128 | >128 | >128 | 32-64 μg/ml | MIC AG103 armA [2]: 16 to 32 µg/mL; MIC pH432 ANT(4′) [2]: 4 μg/ml
8 | NCC1OC(OC2C(CO)OC(OC3C(O)C(N)CC(N)C3OC3OC4C(O)CCCOC4C(O)C3N)C2O)C(N)C(O)C1O (stereo not drawn) [DC196] | 96 | 200 | 88 | 0.14 | 43 |  | 2 (≈ 3.05 µM) |  |  |  | >32 |  | 4 (≈ 6.1 µM) |  | 4 μg/ml | 2 (≈ 3.05 µM) | >128 | >128 | 64 | 16 μg/ml | 
9 | NC[C@@H]1O[C@H](O[C@H]2[C@@H](O)[C@H](O[C@@H]3[C@@H](O)[C@H](N)C[C@H](N)[C@H]3O[C@H]3O[C@H](CN)[C@@H](O)[C@H](O)[C@H]3O)O[C@@H]2CO)[C@H](N)[C@@H](O)[C@@H]1O [DC-119] | 2.7 | 36 | 108 | 0.03 | 88 | 2 to 4 | 2 (≈ 3.25 µM) | >128 | >128 | 2 (≈ 3.25 µM) | 128 (≈ 208 µM) | 128 (≈ 208 µM) | 2 to 4 | 2 to 4 |  |  |  |  |  |  | 
10 | NCC1OC(OC2C(CO)OC(OC3C(O)C(N)CC(N)C3OC3OC(CN)C(O)C(O)C3NC=O)C2O)C(N)C(O)C1O (stereo not drawn) [DC-182] | 13 | 54 | 127 | 0.12 | 110 |  |  |  |  |  |  |  |  |  |  |  |  |  |  |  | MIC [2]: 4 to 8 µg/mL (≈ 6.22 to 12.4 µM); MIC (MRSA; [7]): 2 to 4 µg/mL (≈ 3.11 to 6.22 µM); MIC (MRSA; [8]): > 32 µg/mL; MIC (MRSA; [9]): > 32 µg/mL; MIC (P aeruginosa; [10]): > 32 µg/mL; MIC (P aeruginosa; [11]): > 32 µg/mL; MIC (E coli wild type; [12]): 4 to 8 µg/mL (≈ 6.22 to 12.4 µM); MIC (E coli wild type; [13]): 2 µg/mL (≈ 3.11 µM)
11 | NCC1OC(OC2C(CNC=O)OC(OC3C(O)C(N)CC(N)C3OC3OC(CO)C(O)CC3N)C2O)C(N)C(O)C1O (stereo not drawn) [DC153] | 39 | 144 | 132 | 0.12 | 57 | 4 (≈ 6.38 µM) | 4 (≈ 6.38 µM) | >128 | >128 | 4 (≈ 6.38 µM) | 32 to 64 | 32 (≈ 51.1 µM) | 4 (≈ 6.38 µM) | 2 to 4 |  |  |  |  |  |  | 
